The text below walks through data of US11591336B2 (Relay Therapeutics, Inc., priority 2017, dated 2023).

Where a name gives a salt, the structure may show the parent alone.

In this test the target is SHP2 (Homo sapiens (Human), UniProt Q06124). Put plainly: SHP2 Allosteric Inhibition Assay (DiFMUP prompt fluorescence). In kind it is biochemical. Particulars: 0.25 nM SHP2 activated with 0.5 μM peptide IRS1_pY1172(dPEG8)pY1222; substrate DiFMUP 100 μM; 25° C.
Sequence of SHP2 (Q06124 whole entry): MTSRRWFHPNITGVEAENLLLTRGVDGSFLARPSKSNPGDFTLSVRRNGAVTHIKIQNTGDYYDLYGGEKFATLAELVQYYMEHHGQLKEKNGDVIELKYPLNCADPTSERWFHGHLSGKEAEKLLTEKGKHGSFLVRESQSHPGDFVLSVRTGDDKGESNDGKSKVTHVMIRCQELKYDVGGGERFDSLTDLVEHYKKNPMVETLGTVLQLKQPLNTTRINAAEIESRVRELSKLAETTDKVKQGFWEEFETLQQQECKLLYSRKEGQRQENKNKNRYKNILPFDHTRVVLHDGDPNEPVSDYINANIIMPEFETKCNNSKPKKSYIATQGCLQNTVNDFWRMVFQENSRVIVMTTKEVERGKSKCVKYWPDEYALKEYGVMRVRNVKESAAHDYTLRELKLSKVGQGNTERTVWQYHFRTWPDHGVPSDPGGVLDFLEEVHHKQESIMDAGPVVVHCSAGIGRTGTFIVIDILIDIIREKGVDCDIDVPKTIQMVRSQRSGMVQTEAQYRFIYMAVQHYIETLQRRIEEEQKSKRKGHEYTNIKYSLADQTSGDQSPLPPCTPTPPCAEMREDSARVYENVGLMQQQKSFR
In the case of `C[C@@H]1C[C@H](O)CCN1c1cnc2c(N3CCCc4ncccc43)n[nH]c2n1` (racemic) [Compound 95, (2R,4R)-1-(3-(3,4-dihydro-1,5-naphthyridin-1(2H)-yl)-1H-pyrazolo[3,4-b]pyrazin-6-yl)-2-methylpiperidin-4-ol], the IC50 was at least 10000 nM.

For `C[C@@H]1C[C@@H](CN)CCN1c1cnc2c(N3CCCc4ncccc43)n[nH]c2n1` (racemic) [Compound 104, ((2R,4S)-1-(3-(3,4-dihydro-1,5-naphthyridin-1(2H)-yl)-1H-pyrazolo[3,4-b]pyrazin-6-yl)-2-methylpiperidin-4-yl)methanamine], the IC50 is under 1000 nM.

The compound `C[C@@H]1C[C@H](CN)CCN1c1cnc2c(N3CCCc4ncccc43)n[nH]c2n1` (racemic) [Compound 109, ((2R,4R)-1-(3-(3,4-dihydro-1,5-naphthyridin-1(2H)-yl)-1H-pyrazolo[3,4-b]pyrazin-6-yl)-2-methylpiperidin-4-yl)methanamine] showed an IC50 of 1000 to 10000 nM.

`NC[C@H]1CCN(c2cnc3c(N4CCCc5ncccc54)n[nH]c3n2)[C@H](Cc2ccccc2)C1` (racemic) [Compound 158] returned a concentration for half-maximal inhibition (IC50) of at least 10000 nM.

Regarding `NC[C@H]1CCN(c2cnc3c(N4CCCc5ncccc54)n[nH]c3n2)[C@@H](Cc2ccccc2)C1` (racemic) [Compound 159], the concentration for half-maximal inhibition (IC50) lay within 1000 to 10000 nM.

`N[C@@H]1CCC[C@@]12CCN(c1cnc3c(N4CCCc5ncccc54)n[nH]c3n1)C2` (relative stereo) [Compound 206, rel-(5S,6R)-2-(3-(3,4-dihydro-1,5-naphthyridin-1(2H)-yl)-1H-pyrazolo[3,4-b]pyrazin-6-yl)-2-azaspiro[4.4]nonan-6-amine] returned an IC50 of 1000 to 10000 nM.

For the compound `C[C@@H]1CCN(c2n[nH]c3nc(N4CCC5(CC4)CO[C@@H](C)[C@H]5N)cnc23)c2ccc(-c3ncc[nH]3)nc21` (relative stereo) [Compound 448, (3S,4S)-8-{3-[(4R*)-6-(1H-imidazol-2-yl)-4-methyl-1,2,3,4-tetrahydro-1,5-naphthyridin-1-yl]-1H-pyrazolo[3,4-b]pyrazin-6-yl)-3-methyl-2-oxa-8-azaspiro[4.5]decan-4-amine hydrochloride], the IC50 was under 1000 nM.

Regarding `C[C@@H]1OCC2(CCN(c3cnc4c(N5CC[C@H](C)c6nc(-c7ncc[nH]7)ccc65)n[nH]c4n3)CC2)[C@@H]1N` (relative stereo) [Compound 449, (3S,4S)-8-{3-[(4R*)-6-(1H-imidazol-2-yl)-4-methyl-1,2,3,4-tetrahydro-1,5-naphthyridin-1-yl]-1H-pyrazolo[3,4-b]pyrazin-6-yl)-3-methyl-2-oxa-8-azaspiro[4.5]decan-4-amine hydrochloride], the IC50 was under 1000 nM.

Compound `C[C@@H]1CCN(c2n[nH]c3nc(N4CCC5(CC4)CO[C@@H](C)[C@H]5N)cnc23)c2ccc(-c3noc(=O)[nH]3)nc21` (relative stereo) [Compound 450, 3-[(8R*)-5-{6-[(3S,4S)-4-amino-3-methyl-2-oxa-8-azaspiro[4.5]decan-8-yl]-1H-pyrazolo[3,4-b]pyrazin-3-yl}-8-methyl-5,6,7,8-tetrahydro-1,5-naphthyridin-2-yl]-4,5-dihydro-1,2,4-oxadiazol-5-one] showed an IC50 of under 1000 nM.

`C[C@@H]1OCC2(CCN(c3cnc4c(N5CC[C@H](C)c6nc(-c7noc(=O)[nH]7)ccc65)n[nH]c4n3)CC2)[C@@H]1N` (relative stereo) [Compound 451, 3-[(8R*)-5-{6-[(3S,4S)-4-amino-3-methyl-2-oxa-8-azaspiro[4.5]decan-8-yl]-1H-pyrazolo[3,4-b]pyrazin-3-yl}-8-methyl-5,6,7,8-tetrahydro-1,5-naphthyridin-2-yl]-4,5-dihydro-1,2,4-oxadiazol-5-one]: the IC50 is under 1000 nM.

`CCC1CCN(c2n[nH]c3nc(N4CCC(C)(CN)CC4)cnc23)c2ccccc21` (single isomer, unassigned) [Compound 102, hydrochloride] had a half-maximal inhibitory concentration (IC50) of under 1000 nM.

As to `CCC1CCN(c2n[nH]c3nc(N4CCC(C)(CN)CC4)cnc23)c2ccccc21` (single isomer, unassigned) [Compound 103, hydrochloride], the IC50 is under 1000 nM.

Compound `C[C@H](N)C1(C)CCN(c2cnc3c(N4CCCc5ncccc54)n[nH]c3n2)CC1` (single isomer, unassigned) [Compound 110] showed a 50% inhibitory concentration (IC50) of under 1000 nM.

For the compound `C[C@@H](N)C1(C)CCN(c2cnc3c(N4CCCc5ncccc54)n[nH]c3n2)CC1` (single isomer, unassigned) [Compound 111], the IC50 was under 1000 nM.

`C[C@@H]1CCN(c2n[nH]c3nc(N4CCC(C)(CN)CC4)cnc23)c2ccc(C#N)cc21` (single isomer, unassigned) [Compound 115]: the IC50 is under 1000 nM.

`C[C@H]1CCN(c2n[nH]c3nc(N4CCC(C)(CN)CC4)cnc23)c2ccc(C#N)cc21` (single isomer, unassigned) [Compound 116] had an IC50 of under 1000 nM.

The compound `CC1CCN(c2n[nH]c3nc(N4CCC(C)(CN)CC4)cnc23)c2cccnc21` (single isomer, unassigned) [Compound 128] showed a half-maximal inhibitory concentration (IC50) of under 1000 nM.

`C[C@@H]1CCN(c2n[nH]c3nc(N4CCC(C)(CN)CC4)cnc23)c2ccc(-c3nccs3)nc21` (single isomer, unassigned) [Compound 196, hydrochloride] came in with a half-inhibitory concentration (IC50) of under 1000 nM.

In turn, `C[C@H]1CCN(c2n[nH]c3nc(N4CCC(C)(CN)CC4)cnc23)c2ccc(-c3nccs3)nc21` (single isomer, unassigned) [Compound 197, hydrochloride] gave an IC50 of under 1000 nM.

In the case of `C[C@@H]1CCN(c2n[nH]c3nc(N4CCC5(CC4)CO[C@@H](C)[C@H]5N)cnc23)c2ccc(C#N)c(F)c21` (single isomer, unassigned) [Compound 229], the 50% inhibitory concentration (IC50) is under 1000 nM.

As for `C[C@@H]1OCC2(CCN(c3cnc4c(N5CC[C@H](C)c6c5ccc(C#N)c6F)n[nH]c4n3)CC2)[C@@H]1N` (single isomer, unassigned) [Compound 230], the IC50 is under 1000 nM.

For the compound `C[C@@H]1CCN(c2n[nH]c3nc(N4CCC5(CC4)CO[C@@H](C)[C@H]5N)cnc23)c2cc(F)cnc21` (single isomer, unassigned) [Compound 262, hydrochloride], the IC50 is under 1000 nM.

The compound `C[C@@H]1OCC2(CCN(c3cnc4c(N5CC[C@H](C)c6ncc(F)cc65)n[nH]c4n3)CC2)[C@@H]1N` (single isomer, unassigned) [Compound 263, hydrochloride] gave an IC50 of under 1000 nM.

For the compound `C[C@@H]1OCC2(CCN(c3cnc4c(N5CC[C@H](C)c6nc(-c7ncon7)ccc65)n[nH]c4n3)CC2)[C@@H]1N` (single isomer, unassigned) [Compound 370], the half-inhibitory concentration (IC50) is under 1000 nM.

The compound `C[C@@H]1CCN(c2n[nH]c3nc(N4CCC5(CC4)CO[C@@H](C)[C@H]5N)cnc23)c2ccc(-c3ncon3)nc21` (single isomer, unassigned) [Compound 371] yielded an IC50 of under 1000 nM.

For the compound `C[C@@H]1C[C@@H](N)CCN1c1cnc2c(N3CCCc4ncccc43)n[nH]c2n1` (stereo in doubt) [Compound 24, rel-(2R,4S)-1-(3-(3,4-Dihydro-1,5-naphthyridin-1(2H)-yl)-1H-pyrazolo[3,4-b]pyrazin-6-yl)-2-methylpiperidin-4-amine], the concentration for half-maximal inhibition (IC50) is under 1000 nM.

The IC50 is the concentration that inhibits the measured activity by half. Read a high IC50 as a need for much substance.
